Tests used:
ASPC1 = experiment: MTT growth inhibition, pancreatic cell line ASPC1; format: cell-based; conditions: MTT assay, 96 h treatment, average of three independent experiments
Protocol: (§1) Eight of these analogs 6d, 6h, 6n, 6g, 7b, 7d, 8g, and 8h were tested for their cytotoxicity in seven pancreatic cell lines ASPC1, Panc1, Panc203, Panc430, Pane 1005, MiaPaca2, and HS766T using MTT assay. Cells were trypsinized, seeded at 5×10^3 cells/well in 96-well plate and allowed to grow for 24 hours before the treatment with exponential increasing concentrations of drugs in the presence of 10% FBS. After a 96-hours period of treatment, 20 μl of MTT solution (5 mg/ml in PBS) were added to each well, and the plates were then incubated for 3 hours at 37° C. Medium was then replaced with 100 μl of DMSO per well. Plates were shaken and the optical density was measured at 570 nm using a multiwell plate reader (Bio-Rad, Model 550, Bio-Rad Inc., Hercules, Calif.). Each experiment was performed in triplicate for each drug concentration and was carried out independently at least 3 times. The IC50 value was defined as the concentration needed for a 50% reduction in the absorbance calculated based on the survival curves. Response to drug treatment was assessed by standardizing treatment groups to untreated controls. Compounds activity was compared with compound 1.
(§2) Table 2 (Growth Inhibition of Pancreatic Cancer Cell Lines by BPU and BPTU Analogues (IC50) a) compares the cytotoxicity of a series of new derivatives against a panel of seven pancreatic cancer cell lines, as determined by MTT assay. See, Mosmann, T., J. Immunol. Methods 65:55-63 (1983).

Panc1 = experiment: MTT growth inhibition, pancreatic cell line Panc1; format: cell-based; conditions: MTT assay, 96 h treatment, average of three independent experiments
Protocol: as §1, §2

Panc203 = experiment: MTT growth inhibition, pancreatic cell line Panc203; format: cell-based; conditions: MTT assay, 96 h treatment, average of three independent experiments
Protocol: as §1, §2

Panc430 = experiment: MTT growth inhibition, pancreatic cell line Panc430; format: cell-based; conditions: MTT assay, 96 h treatment; average of three independent experiments
Protocol: as §1, §2

Panc1005 = experiment: MTT growth inhibition, pancreatic cell line Panc1005; format: cell-based; conditions: MTT assay, 96 h treatment, average of three independent experiments
Protocol: as §1, §2

Miapaca2 = experiment: MTT growth inhibition, pancreatic cell line Miapaca2; format: cell-based; conditions: MTT assay, 96 h treatment, average of three independent experiments
Protocol: as §1, §2

HS766 = experiment: MTT growth inhibition, pancreatic cell line HS766; format: cell-based; conditions: MTT assay, 96 h treatment, average of three independent experiments
Protocol: as §1, §2

CWR22R = experiment: MTT growth inhibition, prostate cancer cell line CWR22R; format: cell-based, human; conditions: MTT assay, average of three independent experiments
LnCaP = experiment: MTT growth inhibition, prostate cancer cell line LnCaP; format: cell-based, human; conditions: MTT assay, average of three independent experiments
Protocol: (§3) This MTT assay was carried using human prostate cancer cell lines CWR22R, LAPC-4 and LnCap using Promega cell titer 96 nonradioactive cell proliferation kits. Cells were trypsinized and centrifuged at 1000 rpm for 5 minutes and the supernatant was aspirated. Cells were resuspended with HBSS to a concentration of 10^6/ml. Cell suspension was diluted in serum containing medium to plate 2000 cells/well/0.2 ml. Cell suspension was transferred to sterile solution basin. Cells were plated using multichannel pipette set at 200 μl and incubated overnight for attachment. One plate was prepared for day 0 MTT assay as follows: 100 μl of media was removed from each well using multichannel pipette and 15 μl of MTT reagent was added. Plates were incubated at 37° C. for 4 hrs. […] of STOP solution was added to each well and incubated at room temperature for 1 hour. Absorbance was measured at 570 and 650 nm on plate reader. All the media from the remaining plates were carefully removed and the cells were treated with the media containing drug. MTT assays were done on days 0, 3, 5 and 7. In the preliminary screening […] BPU sulfur analogs 6l, 6h, 6n, 7d and 8h were screened and their activity was compared with compound 1.
(§4) Compounds with significant inhibitory activity in pancreatic cancer cells were further evaluated against prostate cancer cell lines in the MTT assay, (Mosmann, T., J. Immunol. Methods 65:55-63 (1983)) and the results were compared to those for compound 1 (Table 3).

LAPC-4 = experiment: MTT growth inhibition, prostate cancer cell line LAPC-4; format: cell-based, human; conditions: MTT assay, average of three independent experiments
Protocol: as §3, §4

MCF-7 cells = experiment: Apoptosis of MCF-7 cells; format: cell-based; conditions: 48 hours
tubulin [1] = experiment: Inhibition of tubulin polymerization; format: biochemical; conditions: Tubulin was at 10 μM; read-out: tubulin IC50 ± SD (inhibition of tubulin polymerization)
Protocol: Briefly, tubulin polymerization was followed turbidimetrically at 350 nm in Beckman model DU7400 and DU7500 recording spectrophotometers equipped with electronic temperature controllers. […] Samples were pre-incubated for 15 min at 30° C. and chilled on ice. GTP (final concentration, 0.4 mmol/L) was added to each reaction mixture, and these were placed in cuvettes held at 0° C. Baselines were established, the temperature was raised to 30° C.

tubulin [2] = experiment: Inhibition of [3H]colchicine binding; conditions: Tubulin 1 μM; [3H]colchicine and inhibitor at 5 μM

SMILES	IC50 (ASPC1) [µM]	IC50 (Panc1) [µM]	IC50 (Panc203) [µM]	IC50 (Panc430) [µM]	IC50 (Panc1005) [µM]	IC50 (Miapaca2) [µM]	IC50 (HS766) [µM]	IC50 (CWR22R) [µM]	IC50 (LnCaP) [µM]	IC50 (LAPC-4) [µM]	IC50 (ASPC1; Homo sapiens, ASPC1) [µM]	IC50 (Panc1; Homo sapiens, PANC-1) [µM]	IC50 (Panc203; Homo sapiens, Panc203) [µM]	IC50 (Panc1005; Homo sapiens, Panc1005) [µM]	IC50 (Miapaca2; Homo sapiens, MIA PaCa-2) [µM]	IC50 (HS766; Homo sapiens, Hs 766) [µM]	IC50 (CWR22R; Homo sapiens, 22Rv1) [µM]	IC50 (LnCaP; Homo sapiens, LNCaP) [µM]	IC50 (LAPC-4; Homo sapiens, LAPC4) [µM]	also measured
Cc1cc(NC(=O)NC(=O)c2ccccc2N(C)C)ccc1Oc1ncc(Br)cn1 [Compound 1, reference compound]	0.85	0.7	0.95	0.8	5	0.85	1	1	0.5	0.25										rate of apoptosis (MCF-7 cells; 10 nM): 16.1%; rate of apoptosis (MCF-7 cells; 30 nM): 19.5%; rate of apoptosis (MCF-7 cells; 100 nM): 27.7%
Brc1cnc(Sc2ccc(N=CON=COc3ccccc3)cc2)nc1 [Compound 6g]				2							> 10	> 10	7.5	> 10	5	5.5				
Brc1cnc(Sc2ccc(N=CSN=COc3ccccc3)cc2)nc1 [Compound 6h]				7.5							10	9.5	> 10	> 10	10	8.5	> 10	> 10	6	
O=[N+]([O-])c1ccccc1OC=NOC=Nc1ccc(Sc2ncccn2)cc1 [Compound 6l]																	5	0.5	0.6	
O=C(NC(=O)c1ccccc1[N+](=O)[O-])Nc1ccc(Oc2nccc(Br)n2)cc1 [Compound 6m]	0.77	0.68	> 10	10	> 10	0.74	0.47	5	1	0.2										IC50 (tubulin [1]): 4.7 µM; colchicine binding (% ± SD), inhibition of [3H]colchicine binding (tubulin [2]): 21 ± 5%
